Assay results from ChEMBL document CHEMBL2074462, “MRP4: A previously unidentified factor in resistance to nucleoside-based antiviral drugs” (Nat Med, 1999).

Target: T1, ATP-binding cassette sub-family C member 4 (Homo sapiens, UniProt O15439)
T1 sequence (O15439 whole entry): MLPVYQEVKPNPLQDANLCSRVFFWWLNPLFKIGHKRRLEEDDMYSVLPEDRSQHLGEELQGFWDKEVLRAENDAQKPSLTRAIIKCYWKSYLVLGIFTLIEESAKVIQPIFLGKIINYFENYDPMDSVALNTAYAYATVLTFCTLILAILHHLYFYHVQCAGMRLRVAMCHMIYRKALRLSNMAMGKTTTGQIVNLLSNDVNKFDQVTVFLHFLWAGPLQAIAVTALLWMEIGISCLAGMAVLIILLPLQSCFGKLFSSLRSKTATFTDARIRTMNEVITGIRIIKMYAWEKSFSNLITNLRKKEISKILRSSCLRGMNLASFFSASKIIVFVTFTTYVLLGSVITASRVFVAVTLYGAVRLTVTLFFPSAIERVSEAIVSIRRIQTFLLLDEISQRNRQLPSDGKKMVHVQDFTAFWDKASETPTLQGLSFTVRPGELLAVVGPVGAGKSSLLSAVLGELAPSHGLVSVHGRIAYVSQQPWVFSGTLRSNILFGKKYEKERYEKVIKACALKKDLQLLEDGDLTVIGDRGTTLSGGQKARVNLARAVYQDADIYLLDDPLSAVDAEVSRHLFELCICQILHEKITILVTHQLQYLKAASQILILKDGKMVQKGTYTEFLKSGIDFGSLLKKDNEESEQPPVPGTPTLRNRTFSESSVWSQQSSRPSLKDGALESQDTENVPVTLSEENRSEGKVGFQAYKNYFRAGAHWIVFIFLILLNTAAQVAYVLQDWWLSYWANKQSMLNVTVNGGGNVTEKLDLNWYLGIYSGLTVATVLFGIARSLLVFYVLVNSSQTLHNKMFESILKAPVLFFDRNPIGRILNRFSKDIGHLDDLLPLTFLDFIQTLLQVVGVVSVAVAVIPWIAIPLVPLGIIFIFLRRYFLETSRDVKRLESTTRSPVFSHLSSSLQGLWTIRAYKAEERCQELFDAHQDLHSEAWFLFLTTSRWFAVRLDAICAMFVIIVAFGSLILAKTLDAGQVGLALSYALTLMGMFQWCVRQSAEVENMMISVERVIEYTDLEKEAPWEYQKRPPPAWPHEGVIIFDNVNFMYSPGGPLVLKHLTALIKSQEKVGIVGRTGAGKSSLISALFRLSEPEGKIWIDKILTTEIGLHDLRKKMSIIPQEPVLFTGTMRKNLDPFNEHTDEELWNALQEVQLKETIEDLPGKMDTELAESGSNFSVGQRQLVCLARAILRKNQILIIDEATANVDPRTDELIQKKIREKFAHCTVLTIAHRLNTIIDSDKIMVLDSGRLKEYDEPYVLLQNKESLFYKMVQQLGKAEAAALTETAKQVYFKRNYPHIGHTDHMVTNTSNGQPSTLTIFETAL
Assay: TP_TRANSPORTER: efflux in CEM-r1 cells
Assay type: functional, cell-based

Compound: Nc1ncnc2c1ncn2CCOCP(=O)(O)O [ADEFOVIR]
- Activity: substrate [+]

Compound: Cc1cn([C@H]2C[C@H](N=[N+]=[N-])[C@@H](COP(=O)(O)O)O2)c(=O)[nH]c1=O [AZIDOTHYMIDINE MONOPHOSPHATE]
- Activity: substrate [+]
